Measurements taken from publication PMC12142043, “Cell-based high-content approach for SARS-CoV-2 neutralization identifies unique monoclonal antibodies and PI3K pathway inhibitors” (Frontiers in Cell and Developmental Biology, 2025).
Counter-ions that a name gives are not always drawn. Like-named read-outs stand apart in the source and are kept apart here.

Test system: SARS-CoV-2 (USA-WA1/2020) in Calu-3 cells
Assay type: cell-based
[1] = high dose (10 µM), Calu-3, 48 h
[2] = low dose (100 nM), Calu-3, 48 h

Row | SMILES | dsRNA signal, AU High [1] | dsRNA signal, AU Low [2] | Reduction of infection in representative images (Figure 4A) | dsRNA signal, AU High | dsRNA signal, AU Low
1 | c1ccc2c(-c3cnn4cc(-c5ccc(N6CCNCC6)cc5)cnc34)ccnc2c1 [LDN-193189] | 30043.0 AU | 7399.9 AU |  |  | 
2 | COc1cc(-c2cc(-c3ccc(N4CCNCC4)cc3)cnc2C)cc(OC)c1OC [LDN-214117] | 4693.4 AU | 28899.6 AU |  |  | 
3 | C/C(O)=C(\C#N)C(=O)Nc1cc(Br)ccc1Br [LFM-A13] | 60025.3 AU | 42758.8 AU |  |  | 
4 | c1ccc(-c2[nH]ncc2-c2ccnc3ccccc23)nc1 [LY364947] | 12638.5 AU | 3456.2 AU |  |  | 
5 | O=C1NC(=O)C(c2cnc3ccccn23)=C1c1cn2c3c(cc(F)cc13)CN(C(=O)N1CCCCC1)CC2 [LY2090314] | 16169.3 AU | 7523.7 AU |  |  | 
6 | c1ccc(-c2nn3c(c2-c2ccnc4cc(OCCN5CCOCC5)ccc24)CCC3)nc1 [LY2109761] | 9694.6 AU | 5823.5 AU |  |  | 
7 | Cc1cccc(-c2nn3c(c2-c2ccnc4ccc(C(N)=O)cc24)CCC3)n1 [LY2157299] | 33079.0 AU | 15107.1 AU |  |  | 
8 | CC(C)(C)Cn1c(N)nc2ccc(-c3[nH]c(C(C)(C)C)nc3-c3ccc(F)cc3)nc21 [LY2228820] | 88.7 AU | 5927.3 AU |  |  | 
9 | Cn1cc(-c2ccc(F)c(C(F)(F)F)c2)nc1C1CCN(c2ncnc3[nH]ncc23)CC1 [LY2584702] | 5638.3 AU | 15579.4 AU |  |  | 
10 | Cc1cnc(NC(=O)Nc2cc(Br)c(C)cc2OC[C@@H]2CNCCO2)cn1 [LY2603618] | 13995.2 AU | 6197.3 AU |  |  | 
11 | CCN1CCN(Cc2ccc(Nc3ncc(F)c(-c4cc(F)c5nc(C)n(C(C)C)c5c4)n3)nc2)CC1 [LY2835219 free base] | 59180.8 AU | 26611.9 AU |  |  | 
12 | C[C@@H](Oc1ccc2[nH]nc(/C=C/c3cnn(CCO)c3)c2c1)c1c(Cl)cncc1Cl [LY2874455] | 11432.5 AU | 3320.6 AU |  |  | 
13 | Cn1nccc1Nc1nccc(-c2cc3c(s2)C(C)(C)N(CCN2CCOCC2)C3=O)n1 [LY3214996] | 4594.5 AU | 22927.9 AU |  |  | 
14 | O=c1cc(N2CCOCC2)oc2c(-c3ccccc3)cccc12 [LY 294002] | 11164.3 AU | 43579.3 AU |  |  | 
15 | COc1cc2nccc(Oc3ccc(NC(=O)NC4CC4)c(Cl)c3)c2cc1C(N)=O [Lenvatinib (E7080)] | 26964.0 AU | 55504.0 AU |  |  | 
16 | CCN(CC)CC(=O)Nc1c(C)cccc1C [Lidocaine] | 26152.6 AU | 999.3 AU |  |  | 
17 | C[C@@H]1O[C@@H](OC[C@H]2O[C@@H](Oc3cc(O)c4c(=O)cc(-c5ccc(O)cc5)oc4c3)[C@H](O[C@@H]3O[C@@H](C)[C@H](O)[C@@H](O)[C@H]3O)[C@@H](O)[C@@H]2O)[C@H](O)[C@H](O)[C@H]1O [Ligustroflavone] | 4049.2 AU | 6040.1 AU |  |  | 
18 | Cc1c(F)cc(C(=O)NC2CC2)cc1-c1ccc(C(=O)NCC(C)(C)C)cn1 [Losmapimod, reference compound] |  |  | poor activity |  | 
19 | Cn1cnc2c(F)c(Nc3ccc(Br)cc3F)c(C(=O)NOCCO)cc21 [MEK162 (ARRY-162, ARRY-438162)] | 32104.0 AU | 54835.5 AU |  |  | 

Row | SMILES | dsRNA signal, AU High [1] | dsRNA signal, AU Low [2] | Reduction of infection in representative images (Figure 4A) | dsRNA signal, AU High | dsRNA signal, AU Low
20 | COCCNCc1ccc(-c2cc3nccc(Oc4ccc(NC(=S)NC(=O)Cc5ccc(F)cc5)cc4F)c3s2)nc1 [MGCD-265] | 4249.4 AU | 42710.5 AU |  |  | 
21 | O=[N+]([O-])c1ccc(Nc2nc(N3CCOCC3)nc(N3CCOCC3)n2)cc1 [MHY1485] | 4962.4 AU | 35655.5 AU |  |  | 
22 | CN(C[C@@H]1COCCO1)S(=O)(=O)Nc1ccc2ccc3ncc(-c4cnn(C)c4)cc3c(=O)c2c1 [MK-2461] | 19211.6 AU | 2226.3 AU |  |  | 
23 | O=C(O)[C@]1(Cc2cccc(Nc3nccs3)n2)CC[C@@H](Oc2cccc(Cl)c2F)CC1 [MK-5108 (VX-689)] | 3258.6 AU | 34308.8 AU |  |  | 
24 | COc1ccc(-c2cnc3c(-c4cccc5ncccc45)cnn3c2)cc1 [ML347] | 0.0 AU | 58224.3 AU |  |  | 
25 | Cl.O=S(=O)(c1cccc2c(I)cccc12)N1CCCNCC1 [ML-7 hydrochloride] | 19324.6 AU | 18346.9 AU |  |  | 
26 | COc1c(Cl)cc2c([nH]c3cnccc32)c1NC(=O)c1cccnc1C [MLN120B] | 3021.2 AU | 0.0 AU |  |  | 
27 | O=C(O)c1ccc(Nc2ncc3c(n2)-c2ccc(Cl)cc2C(c2c(F)cccc2F)=NC3)cc1 [MLN8054] | 4632.4 AU | 9929.7 AU |  |  | 
28 | COc1cc(Nc2ncc3c(n2)-c2ccc(Cl)cc2C(c2c(F)cccc2OC)=NC3)ccc1C(=O)O [MLN8237 (Alisertib)] | 9976.5 AU | 32491.8 AU |  |  | 
29 | O=[N+]([O-])/C=C/c1ccc2c(c1)OCO2 [MNS] | 1958.5 AU | 51870.8 AU |  |  | 
30 | CCc1ccc(C(=O)COc2ccc(CC3SC(=O)NC3=O)cc2)nc1 (stereo not drawn) [MSDC-0160] | 16528.8 AU | 15455.5 AU |  |  | 
31 | Nc1ccc(O)c(C(=O)O)c1 [Mesalamine] | 17187.6 AU | 2129.6 AU |  |  | 
32 | CN(C)C(=N)N=C(N)N [Metformin HCl] | 10385.6 AU | 10840.1 AU |  |  | 
33 | Cc1cc(=O)[nH]c(=S)[nH]1 [Methylthiouracil] | 61524.3 AU | 55636.1 AU |  |  | 
34 | CCCCCCCCCCCCCCCCOP(=O)([O-])OCC[N+](C)(C)C [Miltefosine] | 27276.6 AU | 36330.6 AU |  |  | 
35 | O=C1c2c(O)ccc(O)c2C(=O)c2c(NCCNCCO)ccc(NCCNCCO)c21 [Mitoxantrone HCl] | 48235.0 AU | 23848.1 AU |  |  | 
36 | COC(=O)c1c2c(c3ccccc3c1O)OC(C)(C)C=C2 [Mollugin] | 394.8 AU | 5157.1 AU |  |  | 
37 | COc1cc(N2CCC(O)CC2)ccc1Nc1cc(Nc2ccccc2S(=O)(=O)C(C)C)c2cc[nH]c2n1 [Mps1-IN-1] | 7290.6 AU | 34349.9 AU |  |  | 
38 | FC(F)(F)c1ccc(/C=C/c2nc(COc3ccc(CCCCn4ccnn4)cc3)co2)cc1 [Mubritinib (TAK 165)] |  |  |  | 19342.6 | 48533.2

Row | SMILES | dsRNA signal, AU High [1] | dsRNA signal, AU Low [2] | Reduction of infection in representative images (Figure 4A) | dsRNA signal, AU High | dsRNA signal, AU Low
39 | CC(=O)NCCc1c[nH]c2ccc(O)cc12 [N-Acetylserotonin] | 219.3 AU | 53222.8 AU |  |  | 
40 | O=[N+]([O-])c1ccc(Sc2cccc[n+]2[O-])c2nonc12 [NSC228155] | 18547.9 AU | 54998.4 AU |  |  | 
41 | CCN(CC)CCCC(C)Nc1nc(C)cc(Nc2ccc3nc(C)cc(N)c3c2)n1 (stereo not drawn) [NSC 23766] | 10192.1 AU | 15408.3 AU |  |  | 
42 | Oc1cc(CNC(=S)/C=C/c2cc(O)c(O)c(Br)c2)cc(O)c1O [NT157] | 7372.8 AU | 11852.6 AU |  |  | 
43 | O=C(Nc1nc2ccc(NC(=O)C34CC5CC(CC(C5)C3)C4)cc2s1)c1ccccc1 [NVP 231] | 1973.6 AU | 14037.2 AU |  |  | 
44 | Nc1ncnc2c1c(-c1cccc(OCc3ccccc3)c1)cn2[C@H]1C[C@@H](CN2CCC2)C1 [NVP-AEW541] | 1274.0 AU | 19640.6 AU |  |  | 
45 | Cl.Nc1cc(C(F)(F)F)c(-c2cc(N3CCOCC3)nc(N3CCOCC3)n2)cn1 [NVP-BKM120 Hydrochloride] | 0.0 AU | 56514.5 AU |  |  | 
46 | Fc1cc(-c2cccc3ncc(-c4cnn(C5CCNCC5)c4)nc23)cc(F)c1CN1CCOCC1 [NVP-BSK805 2HCl] | 1810.2 AU | 2038.5 AU |  |  | 
47 | Cn1cc(-c2ccc3ncc(Cc4ccc5ncccc5c4)n3n2)cn1 [NVP-BVU972] | 9035.4 AU | 52705.1 AU |  |  | 
48 | CS(=O)(=O)N1CCC(NC(=O)c2[nH]ncc2NC(=O)c2c(Cl)cccc2Cl)CC1 [NVP-LCQ195] | 6040.0 AU | 35350.1 AU |  |  | 
49 | CN1C(=O)C(Cc2c[nH]c3ccccc23)NC1=S (stereo not drawn) [Necrostatin-1] | 12590.5 AU | 10276.4 AU |  |  | 
50 | CCOc1cc2ncc(C#N)c(Nc3ccc(OCc4ccccn4)c(Cl)c3)c2cc1NC(=O)/C=C/CN(C)C [Neratinib (HKI-272)] | 1101.0 AU | 11881.7 AU |  |  | 
51 | Cc1cn(-c2cc(NC(=O)c3ccc(C)c(Nc4nccc(-c5cccnc5)n4)c3)cc(C(F)(F)F)c2)cn1.Cl.O [Nilotinib monohydrochloride monohydrate] | 2759.7 AU | 14574.2 AU |  |  | 
52 | Cc1cn(-c2cc(NC(=O)c3ccc(C)c(Nc4nccc(-c5cccnc5)n4)c3)cc(C(F)(F)F)c2)cn1 [Nilotinib(AMN-107)] | 28653.4 AU | 33622.0 AU |  |  | 
53 | Nc1nc(N)c(N=O)c(OCC2CCCCC2)n1 [Nu 6027] | 2596.9 AU | 10731.2 AU |  |  | 
54 | NCC(=O)Nc1ccc(-n2nc(C(F)(F)F)cc2-c2ccc3c(ccc4ccccc43)c2)cc1 [OSU-03012 (AR-12)] | 17565.3 AU | 17813.3 AU |  |  | 
55 | CC1(C)OC(=O)C=C[C@]2(C)[C@H]3CC[C@@]4(C)[C@H](c5ccoc5)OC(=O)[C@H]5O[C@]54[C@]3(C)C(=O)C[C@@H]12 [Obacunone] | 22534.9 AU | 63087.7 AU |  |  | 
56 | C=C1C(=O)[C@]23[C@H](O)[C@H]1CC[C@H]2[C@@]12CO[C@]3(O)[C@@H](O)[C@@H]1C(C)(C)CC[C@@H]2O [Oridonin] | 6061.2 AU | 25375.1 AU |  |  | 
